Measured values from patent US20070179143A1 (priority 2003, published 2007).

Key:
[1] = system: HCT-15; test: Cytotoxicity test to cancer cell lines (SRB method), HCT-15; conditions: Homo sapiens, HCT-15, 48 h, read-out: Cytotoxicity ED50 HCT15
Experimental: (§4) Cytotoxicity to A549 (Korea Research Institute of Chemical Technology), SK-OV-3 (Korea Research Institute of Chemical Technology), SK-MEL-2 (Korea Research Institute of Chemical Technology), HCT-15 (Korea Research Institute of Chemical Technology) and MCF7 (Korean Cell Line Bank, Seoul National University School of medicine) cells was measured by Sulforhodamin-B (SRB) method (1989, National Cancer Institute (NCI)) which was developed for the measurement of in vitro anticancer activity of a drug. Cells were separated using 0.25% trypsin-EDTA solution, leading to the preparation of a cell suspension by 5×10^318 2×10^4 cells/well. Then, the suspension was distributed into a 96 well plate by 100 μl/well, which was cultured in a 37° C., 5% CO2 incubator for 24 hours. Compounds prepared in examples of the present invention were used as a sample. Precisely, the compound was dissolved in dimethylsulfoxide and diluted with RPMI 1640 medium before being used as a sample. The final concentration of the sample used varied ranging 1 μM˜0.00001 μM. The medium was removed from the 96 well plate and then diluted sample solution was added by 100 μl/well, followed by further culture in a 37° C., 5% CO2 incubator for 48 hours. Tz (time zero) plate was collected from the point of adding the sample. Upon completing the culture, the medium was removed from each well along with Tz plate, then 10% trichloroacetic acid (TCA) was added by 100 μl/well. The plate was left at 4° C. for 1 hour to let cells be fixed on the floor of the plate. After cells were fixed completely, the plate was washed with water 5-6 times to remove the remaining trichloroacetic acid solution completely and moisture was completely dried at room temperature. 0.4% Sulforhodamine-B was dissolved in 1% acetic acid solution to prepare a staining solution. Cells were stained for 30 minutes with a dye added by 100 μl to each well of the completely dried plate. Then, the plate was washed with 1% acetic acid solution 5-6 times to remove sulforhodamine-B remained uncombined with cells. Then, the plate was dried at room temperature. 10 mM Tris solution was added by 100 μ/well thereto to dissolve the dye, and optical density (OD) was measured at 520 nm with a micro plate reader.
(§5) ED50 (concentration that inhibits cancer cell growth 50%, 5.0% effective dose, nM/ml) of the sample to cancer cell was calculated as follows. OD value at the point of beginning the culture with the sample was determined as Tz (time zero) value. OD value of a well to be cultured without the sample was determined as a control value (C). OD value of a well pretreated with the sample was determined as experimental value (T). After calculating Tz, C and T, cytotoxicity of the sample was measured by the below <Mathematical Formula 1>. T≦Tz, (T−Tz)/(C−Tz)×100 T>Tz, (T−Tz)/Tz×10,0 <Mathematical Formula 1>
(§6) ED50, the concentration that can inhibit cancer cell growth by 50%, was calculated by using a regression analysis of lotus program based on the degree of cytotoxicity obtained by the <Mathematical Formula 1>.

[2] = system: A549; test: Cytotoxicity test to cancer cell lines (SRB method), A549; conditions: Homo sapiens, A549, 48 h, read-out: Cytotoxicity ED50 A549
Experimental: as §4, §5, §6

[3] = in vivo; conditions: ICR, mouse, in vivo
Experimental: (§1) 5-week-old ICR mice having the weight of 25-35 g (SPF, SLC Co. Japan) were used as test animals. A pair of female and male of the mice was given for the test of each compound. Group T2, T3, T4 and T5 were arranged (10 animals per group) for the test of acute toxicity of the compound prepared in the Example 12. […] Control group (T1) was administered with only a solvent without the compound of the Example 12.
(§2) For comparison, colchicine was injected in the test animals by the same method as described in the above. The group treated with colchicine was composed of 6 mice.
(§3) Taxol produced by Bristol Myers Sqibb Co. was also used for comparison, and the injection and the test of acute toxicity were performed by the same method as described in the above.

[4] = system: ICR mice; test: in vivo; conditions: for Death Total: ICR mice, 7 days, deaths/animals; for Test Day (Death) 2: deaths on day 2; for Test Day (Death) 5: deaths on day 5; for Test Day (Death) 1: deaths on day 1
Experimental: as §1, §2, §3

[5] = system: SK-MEL-2; test: Cytotoxicity test to cancer cell lines (SRB method), SK-MEL-2; assay type: cell-based; conditions: Homo sapiens, SK-MEL-2, 48 h, read-out: Cytotoxicity ED50 SK-MEL-2
[6] = system: SK-OV-3; test: Cytotoxicity test to cancer cell lines (SRB method), SK-OV-3; assay type: cell-based; conditions: Homo sapiens, SK-OV-3, 48 h, read-out: Cytotoxicity ED50 SK-OV-3
[7] = Body weight change of NCI-H460 xenografted nude mice; assay type: in vivo, BALB/c nude mouse
[8] = system: MCF7; test: Cytotoxicity test to cancer cell lines (SRB method), MCF7; conditions: read-out: Cytotoxicity ED50 MCF-7, MCF-7, 48 hours
Experimental: as §4, §5, §6

[9] = system: human lung cancer cell line NCI-H460; test: Inhibiting effect on tumor growth, NCI-H460 xenografted nude mice
Experimental: Samples for the experiment were stored in a refrigerator all the time. […] The prepared sample is subject to be precipitated, so that tip sonication was performed right before the administration to disperse it well.
7 week-old female S.P.F. BALB/c nude mice, provided by Charles River Co., Japan, were used as test animals. The test animals were adapted in a Hepa-filter room over a week before the test. The temperature was 21±2° C., humidity was 55±5% and 12-hour light and dark cycle was automatically repeated in that lab. Solid feed (Cheiluedang) was sterilized by radioactive rays and drinking water was also sterilized by autoclave. Feed and water were taken by the animal freely. Cancer cell line used in this experiment was NCI-H460 (human lung tumor cell line) provided by Korea Research Institute of Bioscience and Biotechnology.
The tumor cell line, stored in liquid nitrogen, was thawed and cultured in a 37° C., 5% CO2 incubator for a required time. Upon completing the culture, all the cells were recovered and cell concentration of the culture fluid was adjusted using PBS to 3×10^7 cells/ml. The adjusted cell culture solution was injected hypodermically into armpit between right shoulder girdle and chest wall by 0.3 ml per mouse. From the next day of grafting, NCI-H460 xenografted nude mice were administered intraperitoneal everyday with the sample solution by 0.2 ml/20 g of weight, once a day.
After the grafting of tumor cells, the volume of a tumor in each individual was measured in three dimensions by using a vernier caliper, which was represented in the below <Mathematical Formula 2>. Tumor volume=(length×width×height)/2 <Mathematical Formula 2>
Body weight changes of animal were measured three times a week. Each xenografted nude mouse was sacrificed to separate a tumor, which was then weighed.

[10] = 2 mg/kg intraperitoneal once a day
[11] = 10 mg/kg intraperitoneal once a day
[12] = 10 mg/kg intraperitoneal once a day, Day 14
[13] = 2.5 mg/kg intraperitoneal once a day

Which EC50 [1] does the source give for `COc1cc2c(c(OC)c1OC)-c1ccc(OC)c(=O)cc1[C@@H](NC(C)=O)CC2` [Colchicine] here?
The EC50 was 9 nM.

What about the EC50 [2] of the same compound?
Its EC50 is 21 nM.

And the LD50 at 7 days ([3]; both)?
The LD50 at 7 days was 2 mg/kg.

And the “Death Total” value ([4]; 0.5 mg/kg)?
Its value is 0/6.

And the “Death Total” value ([4]; 1.0 mg/kg)?
Its value is 0/6.

What about the “Death Total” value ([4]; 2.0 mg/kg) of the same compound?
Its value is 3/6.

And the “Test Day (Death) 3” value ([4]; 2.0 mg/kg, deaths on day 3)?
The value was 1.

What about the “Test Day (Death) 6” value ([4]; 2.0 mg/kg, deaths on day 6) of the same compound?
The value was 2.

And the “Death Total” value ([4]; 5.0 mg/kg)?
The value was 5/5.

And the “Test Day (Death) 2” value ([4]; 5.0 mg/kg)?
The value was 3.

What about the “Test Day (Death) 4” value ([4]; 5.0 mg/kg, deaths on day 4) of the same compound?
The value was 1.

And the “Test Day (Death) 5” value ([4]; 5.0 mg/kg)?
Its value is 1.

What about the EC50 [5] of the same compound?
Its EC50 is 6 nM.

What about the EC50 [6] of the same compound?
Its EC50 is 18 nM.

Which results are given for `COc1cccc2c1C(=O)c1c(O)c3c(c(O)c1C2=O)C[C@@](O)(C(=O)CO)C[C@@H]3O[C@H]1C[C@H](N)[C@H](O)[C@H](C)O1` [Doxorubicin, reference compound]?
Body weight Change Day 1 [7, 10]: 100.0 ± 0.0%; Body weight Change Day 3 [7, 10]: 105.0 ± 4.1%; Body weight Change Day 7 [7, 10]: 103.9 ± 5.5%; Body weight Change Day 9 [7, 10]: 100.5 ± 4.6 %; Body weight Change Day 11 [7, 10]: 96.4 ± 3.5 %; Body weight Change Day 14 [7, 10]: 85.1 ± 1.8 %; EC50 [1]: 25 nM; EC50 [8]: 50 nM; EC50 [2]: 13 nM; EC50 [5]: 16 nM; Tumor Weight Day 14 ([9]; 2 mg/kg intraperitoneal once a day, Day 14): 534.1 ± 87.9 mg; EC50 [6]: 47 nM

Which “Body weight Change Day 1” value [7, 11] does the source give for `CCOc1cc2c(c(OC)c1OC)-c1ccc(SC)c(=O)cc1[C@@H](NC(=O)c1cccc(CO[N+](=O)[O-])c1F)CC2` [Example 8, N-[(7S)-3-ethoxy-1,2-dimethoxy-10-methylsulfanyl-9-oxo-5,6,7,9-tetrahydro-benzo[a]heptalen-7-yl]-2-fluoro-3-nitrooxymethyl-benzamide] here?
Its value is 100.0 ± 0.0%.

What about the “Body weight Change Day 3” value [7, 11] of the same compound?
Its value is 103.5 ± 2.2%.

And the “Body weight Change Day 7” value [7, 11]?
The value was 99.8 ± 4.3 %.

What about the “Body weight Change Day 9” value [7, 11] of the same compound?
The value was 92.3 ± 4.1 %.

And the “Body weight Change Day 11” value [7, 11]?
The value was 89.3 ± 3.7 %.

And the “Body weight Change Day 14” value [7, 11]?
The value was 89.4 ± 5.3 %.

What about the “decrease of the weight of the mouse” value ([7]; comparing to solvent only or positive control) of the same compound?
Its value is “about 10%”.

What about the EC50 [1] of the same compound?
The EC50 was 0.03 nM.

What about the EC50 [8] of the same compound?
Its EC50 is 0.01 nM.

And the EC50 [2]?
Its EC50 is 0.02 nM.

And the EC50 [5]?
Its EC50 is 0.01 nM.

What about the “inhibition rate of the tumor volume” value ([9]; 10 mg/kg) of the same compound?
Its value is 85%.

What about the “Tumor volume Day 0” value ([9]; 10 mg/kg intraperitoneal once a day, Day 0) of the same compound?
The value was 0.0 ± 0.0.

What about the “Tumor volume Day 4” value ([9]; 10 mg/kg intraperitoneal once a day, Day 4) of the same compound?
Its value is 18.0 ± 3.7.

And the “Tumor volume Day 7” value ([9]; 10 mg/kg intraperitoneal once a day, Day 7)?
Its value is 25.2 ± 12.8.

And the “Tumor volume Day 9” value ([9]; 10 mg/kg intraperitoneal once a day, Day 9)?
Its value is 29.6 ± 13.8.

And the “Tumor volume Day 11” value ([9]; 10 mg/kg intraperitoneal once a day, Day 11)?
The value was 35.2 ± 14.0.

And the “Tumor Weight Day 14” value [9, 12]?
The value was 143.4 ± 57.8 mg.

And the “Tumor volume Day 14” value [9, 12]?
The value was 44.5 ± 15.0.

What about the “size and weight of a tumor (in words)” value ([9]; comparing to solvent only (V.C-1, V.C-2) or positive control (taxol, adriamycin)) of the same compound?
The value was “remarkably decreased”.

What about the EC50 [6] of the same compound?
The EC50 was 0.04 nM.

For `COc1cc2c(c(OC)c1OC)-c1ccc(SC)c(=O)cc1[C@@H](N(C)C(=O)c1cccc(CO[N+](=O)[O-])c1)CC2` [Example 41, 3-nitrooxymethyl-N-methyl-N-[(7S)-1,2,3-trimethoxy-10-methylsulfanyl-9-oxo-5,6,7,9-tetrahydro-benzo[a]heptalen-7-yl]-benzamide], which EC50 [1] is on record?
Its EC50 is 36.4 nM.

What about the EC50 [8] of the same compound?
The EC50 was 47.3 nM.

What about the EC50 [2] of the same compound?
Its EC50 is over 50 nM.

What about the EC50 [5] of the same compound?
Its EC50 is over 50 nM.

And the EC50 [6]?
Its EC50 is over 50 nM.

Which EC50 [1] does the source give for `COc1cc2c(c(OC)c1OC)-c1ccc(SC)c(=O)cc1[C@@H](N(C)C(=O)c1cc(F)cc(CO[N+](=O)[O-])c1)CC2` [Example 42, 3-fluoro-N-methyl-5-nitrooxymethyl-N-[(7S)-1,2,3-trimethoxy-10-methylsulfany-9-oxo-5,6,7,9-tetrahydro-benzo[a]heptalen-7-yl]-benzamide] here?
The EC50 was over 50 nM.

And the EC50 [8]?
The EC50 was over 50 nM.

And the EC50 [2]?
Its EC50 is over 50 nM.

And the EC50 [5]?
Its EC50 is over 50 nM.

What about the EC50 [6] of the same compound?
The EC50 was over 50 nM.

What does the source list for `CC(=O)O[C@H]1C(=O)[C@@]2(C)[C@H]([C@H](OC(=O)c3ccccc3)[C@]3(O)C[C@H](OC(=O)[C@H](O)[C@@H](NC(=O)c4ccccc4)c4ccccc4)C(C)=C1C3(C)C)[C@]1(OC(C)=O)CO[C@@H]1C[C@@H]2O` [Paclitaxel, reference compound]?
Body weight Change Day 1 [7, 13]: 100.0 ± 0.0%; Body weight Change Day 3 [7, 13]: 106.0 ± 1.5%; Body weight Change Day 7 [7, 13]: 99.2 ± 4.0 %; Body weight Change Day 9 [7, 13]: 97.1 ± 0%; EC50 [1]: 0.1 nM; EC50 [8]: 0.9 nM; EC50 [2]: 0.3 nM; LD50 ([3]; iv): 9 to 13 mg/kg; Death Total ([4]; 4.0 mg/kg): 0/5; Death Total ([4]; 6.0 mg/kg): 1/5; Test Day (Death) 2 ([4]; 6.0 mg/kg): 1; Death Total ([4]; 9.0 mg/kg): 2/5; Test Day (Death) 5 ([4]; 9.0 mg/kg): 2; Death Total ([4]; 13.0 mg/kg): 4/5; Test Day (Death) 1 ([4]; 13.0 mg/kg): 2; Test Day (Death) 2 ([4]; 13.0 mg/kg): 2; Death Total ([4]; 20.0 mg/kg): 5/5; Test Day (Death) 1 ([4]; 20.0 mg/kg): 5; EC50 [5]: 0.1 nM; EC50 [6]: 1.2 nM
